Data taken from paper PMC5531494, “Target specificity, in vivo pharmacokinetics, and efficacy of the putative STAT3 inhibitor LY5 in osteosarcoma, Ewing's sarcoma, and rhabdomyosarcoma” (PLoS ONE, 2017).
Where two headings read alike, the source gives them in different places.

Experiments:
[1] = PK in normal beagle dogs, IV and oral gavage; format: in vivo; details: plasma; for bioavailability: dog, po, read-out: F (oral bioavailability)
Protocol: LY5 was evaluated in two normal purpose-bred beagle dogs (female 8.8 kg; male 11.2 kg) receiving a single dose of 1mg/kg LY5 IV then orally by gavage 7 days later to establish the PK profile and assess the spectrum of clinical toxicities associated with LY5 administration. The oral dosing was repeated in the fed and fasted state. The starting dose was determined based on allometric scaling from the maximal tolerated dose studies performed in mice. Dogs were washed out for 30 days, and then given a dose of 25 mg in a capsule orally, followed by a 50 mg capsule dose 14 days later. Full PK sampling was performed over 24 hours following each dose of LY5. The dogs received LY5 and were used for the PK analysis but were not euthanized upon conclusion of the study.
The liquid chromatography-mass spectrometry system utilized for these analyses consisted of a Dionex Ultimate 3000 RSLCnano High Performance Liquid Chromatography system and a Thermo Finnigan Quantum Ultras EMR mass spectrometer with an electrospray ionization source. Positive ionization mode was used for both LY5 and the internal standard, hesperetin. Plasma samples were collected and analyzed by the OSU James Comprehensive Cancer Center Pharmacoanalytical Shared Resource. Pharsight Phoenix WinNonlin software using non-compartmental analysis was used to generate PK parameters including maximum plasma concentration (Cmax), amount of time that drug is present at Cmax (Tmax), and total area under the curve (AUC). AUC all and AUC last were calculated by linear trapezoidal method of concentration-time curve up to the last measured point. AUC inf-obs was calculated by log-linear extrapolation of the terminal phase beyond the last collection time. Bioavailability (F) was calculated for IP and PO administration routes. Plasma stability and liver microsomal stability of LY5 were also assessed through this shared resource.

[2] = system: K7M2 cells; test: Ex vivo pulmonary metastasis assay (PuMA); format: cell-based, murine; details: K7M2, 10 μM LY5 only
Protocol: GFP-positive K7M2 and MG63.3 cells (3 x 10^5 MG63.3; 5 x 10^5 K7M2) were administered via tail vein injection into mice. Following humane euthanasia, the lungs were insufflated with a culture medium/agarose mixture to a constant hydrostatic pressure of 20 cm H2O and prepared for ex vivo culture as previously described. Lung sections were cultured in complete media containing LY5 (0, 0.1, 1, 10 or 50 μM) on sterile Gelfoam using 6 lung sections per treatment condition. Media was changed every 48 hrs and lung slices were imaged with a fluorescent microscope every 7 days for a total of 21 days.
MG63.3 and K7M2 cell lines were exposed to increasing concentrations of LY5 to determine the IC50 (A). Western blot analysis was performed to determine the dose and duration of LY5 exposure required to inhibit STAT3 phosphorylation (B-C). Serial imaging of fluorescently labeled MG63.3 and K7M2 cells was performed in ex vivo LY5 treated lung sections (D). Metastatic burden was quantified by evaluation of the percent tumor burden (mean normalized fluorescent area). Data are reported as the mean ± standard deviation. In MG 63.3 experiment, p < 0.0001 Kruskal-Wallis test, p < 0.05 10 μM vs control at days 7, 14, and 21, 10 μM vs 1 μM at days 7, 14, and 21, 50 μM vs control at days 7, 14, and 21, and 50 μM vs 10 μM at days 7, 14, and 21 post-test Dunn. […]

[3] = Protein binding in mice; format: in vitro ADME
[4] = system: 96 human protein or lipid kinases; test: KINOMESCAN binding profile
Protocol: To determine the specificity of STAT blockade, we asked whether LY5 affected the phosphorylation of other family members including STAT1, STAT2, STAT4, and STAT6 [30–32]. […] To further define any potential off-target effects, we profiled the direct (steric) or indirect (allosteric) binding of LY5 to the binding sites of 96 human protein or lipid kinases (KINOMESCAN, www.kinomescan.com).
Supplementary file pone.0181885.s001.pdf: S1 Fig Kinomescan results for LY5. […] At 5 μM LY5 (B), only interaction with PLK3 was identified, mapped S-score (35) = 0.01. (PDF) Click here for additional data file.

[5] = system: ES and OS cells; test: Alamar Blue cell viability assay, ES and OS panel; format: cell-based; details: Homo sapiens; range over ES and OS cells
Protocol: Sarcoma cell lines were seeded in 24-well plates in 1X RPMI medium containing 10% fetal bovine serum. Cells were then incubated with DMSO (control) or concentrations of LY5 ranging from 10 nM to 10 μM for 96 hrs. At the end of the incubation period, Alamar Blue (Invitrogen, Carlsbad, CA) was added to cells at one-tenth the volume of the cell culture medium and incubated for 3 hrs at 37° C in the dark. Fluorescence was then measured at an excitation/emissions wavelength of 570/590 nm and emission wavelength of 590 nm.
Fig 2 Biologic activity of LY5 in sarcoma cell lines. Dose response curves for LY5: RMS cell lines (RH30, RD, JR-1), ES cell lines (ES-3, ES-6, ES-7, ES-8), and an OS cell line (OS-17) were treated with LY5 (concentrations ranging from 10 nM to 10 μM) for 96 hours. Cell viability was determined using Alamar Blue staining. IC50 values are indicated for each cell line. Analyses were performed in triplicate and data are plotted as means ± standard deviation.

[6] = female, Dog #2, PO fed, 1.28 mg/kg, dog vomited 10 min after dosing
[7] = female, Dog #2, PO w/ fast, 0.9 mg/kg
[8] = male, Dog #1, PO fed, 1.28 mg/kg
[9] = male, Dog #1, PO w/ fast, 0.9 mg/kg

Q: For NS(=O)(=O)c1cccc2c1C(=O)C=C(Nc1cccnc1)C2=O [LY5, 5,8-dioxo-6-(pyridin-3-ylamino)-5,8-dihydronaphthalene-1-sulfonamide], which bioavailability ([1]; female, 0.9 mg/kg, Dog #2, PO w/ fast (fasted female dog)) is on record?
A: 44.3%

Q: What about the bioavailability ([1]; female, 1 mg/kg, Dog #2, PO w/ fast (fasted female dog)) of the same molecule?
A: 44%

Q: What about the bioavailability ([1]; female, 1.28 mg/kg, Dog #2, PO fed, dog vomited 10 min after dosing) of the same molecule?
A: 5%

Q: And the AUC ([1]; female, Dog #2, IV, 0.97 mg/kg)?
A: 3.92 µM·h

Q: And the Cmax ([1]; female, Dog #2, IV, 0.97 mg/kg)?
A: 3220 nM

Q: What about the AUC [1, 6] of the same molecule?
A: 0.258 µM·h

Q: And the Cmax [1, 6]?
A: 60.4 nM

Q: And the AUC [1, 7]?
A: 1.61 µM·h

Q: And the Cmax [1, 7]?
A: 500 nM

Q: And the bioavailability ([1]; male, 0.9 mg/kg, Dog #1, PO w/ fast (fasted male dog))?
A: 51.6%

Q: And the bioavailability ([1]; male, 1 mg/kg, Dog #1, PO fed)?
A: 14%

Q: And the bioavailability ([1]; male, 1 mg/kg, Dog #1, PO w/ fast (fasted male dog))?
A: 52%

Q: What about the bioavailability ([1]; male, 1.28 mg/kg, Dog #1, PO fed) of the same molecule?
A: 13.7%

Q: And the AUC ([1]; male, Dog #1, IV, 0.97 mg/kg)?
A: 5.1 µM·h

Q: And the Cmax ([1]; male, Dog #1, IV, 0.97 mg/kg)?
A: 5590 nM

Q: What about the AUC [1, 8] of the same molecule?
A: 0.924 µM·h

Q: And the Cmax [1, 8]?
A: 206 nM

Q: And the AUC [1, 9]?
A: 2.44 µM·h

Q: What about the Cmax [1, 9] of the same molecule?
A: 1280 nM

Q: And the “tumor burden in PuMA” value [2]?
A: reduction

Q: And the drug protein-bound [3]?
A: Approximately 90%

Q: What about the “binding to any of 96 kinases” value ([4]; 1 μM LY5) of the same molecule?
A: no binding

Q: What about the “mapped S-score (35)” value ([4]; 1 μM LY5) of the same molecule?
A: 0

Q: What about the “mapped S-score (35)” value ([4]; 5 μM LY5) of the same molecule?
A: 0.01

Q: And the IC50 [5]?
A: 1.4 to 5.1 µM
